Assay results from article PMC11874377, “Fungal-derived methyldeoxaphomins target Plasmodium falciparum segregation through the inhibition of PfActin1” (Proceedings of the National Academy of Sciences of the …, 2025).
Read-outs that look alike come from different tables or passages of the source.

Tests used:
Format in all cases: cell-based, Plasmodium falciparum
[1] = system: in vitro evolved NPDG-F-resistant Dd2-Pol δ clones (PfActin1 mutations); experiment: Resistant parasite phenotyping and cross resistance, SYBR green I EC50 assay, NPDG-F-resistant clones; conditions: for EC50: Plasmodium falciparum, read-out: EC50 (mean ± SEM)
Protocol: Cloning by limiting dilution was then performed to isolate individual lines from the bulk population. Due to the multiple mutations identified in the first biological replicate, we isolated four clones from this bulk culture as compared to two clones each from the second and third replicates. These clones were phenotyped via a SYBR green I-based dose–response assay (Table 2 and Fig. 2B). […] The DNA of these clones was then extracted and subjected to whole-genome sequencing.
To investigate whether NPDG-F has the same mode of action as cytochalasin D, we tested our clones for sensitivity to both cytochalasin D and jasplakinolide.
Resistant parasite phenotyping and cross resistance measurement
The EC50 assay was performed at 1% parasitemia, 1% hematocrit with SYBR green I in 96-well plates. The highest final concentration of the methyldeoxaphomin NPDG-F was set at 100 μM. Briefly, the compound was subjected to a 3-fold serial dilution with ten dilution points. Three technical replicates were set up at each dilution point. The Dd2-Pol δ parent line and the resistant parasites at 2% hematocrit and 1% parasitemia were added to the drug media at 1:1 ratio. The plate was incubated at 37°C for 72 hours in a chamber filled with a hypoxic gas mixture (3% oxygen, 5% carbon dioxide, and 92% nitrogen). After incubation, the cells were lysis with lysis buffer (20 mM Tris-HCL, 0.08% saponin, 5 mM EDTA, and 0.8% Triton X-100) containing SYBR green I (10,000X, Thermo Fisher, cat # S7563) overnight. Fluorescence was measured at 485nm excitation and 530nm emission using a PHERAstar FSX plate reader (BMG Labtech, Germany). Dose response curves were graphed with Prism 9 Version 9.5.1. […]

P. falciparum = experiment: Parasite reduction ratio (PRR); conditions: 10 × EC50
Protocol: After a 24 h lag phase, only 10^0.64 parasites are killed within the first replication cycle (48 h). […] We also examined the in vitro killing rate in Dd2 through flow cytometric analysis. […]
Parasite reduction ratio adapted from protocol by Sanz et al (Sanz et al., 2012). In brief, early ring stage mono-infected RBCs at 106 were incubated with a 10 x EC50 concentration of NPDG-F, DHA, or atovaquone for either 24, 48, 72, 96, or 120 h. Following incubations, cells were washed and serially diluted. After 3 weeks, growth was determined via SYBR […]
Green I staining. […]

[2] = system: P. falciparum multidrug resistant line Dd2; experiment: SYBR Green I-based antiplasmodial assay, asexual blood stage, Dd2
Protocol: The antiplasmodial activity of these analogs was assessed in P. falciparum asexual blood stage using a SYBR Green I-based assay. Compounds were tested in both the multidrug resistant line Dd2, and the chloroquine-sensitive line 3D7, to probe any potential for preexisting resistance. […] These methyldeoxaphomin analogs were also cross-screened for cytotoxicity in the human cell line HepG2 to determine their selectivity for the Plasmodium parasite. […] This effect was maintained with analog NPDG-F where both R1 and R2 were substituted with OH groups. […] In addition, the hydroxyl group at carbon 7 seems to be critical for function as a drastic loss of potency was found in NPDG-D as compared to B and C. […]
Plasmodium blood stage culture
Parasite culture in the Chakrabarti lab was maintained following a modified Trager and Jensen protocol (Trager & Jensen, 1976) as previously described (Lee et al., 2021) with RPMI 1640 with 25 mM HEPES pH 7.4, 26 mM NaHCO3, 15 mg/L hypoxanthine, 0.5% Albumax II, 25 mg/L gentamycin, and 2% dextrose. Parasites were grown with human A+ erythrocytes obtained from Florida OneBlood. Cultures were kept in an incubator with 5% […]
Antiplasmodial activity screening
SYBR Green I-based fluorescence assay was performed as previously described (Lee et al., 2021) following protocols by Smilkstein et. al. (Smilkstein et al., 2004). Asynchronous Dd2 parasites were added to serially diluted compounds and incubated for 72 h at 5% CO2, 95% air at 37°C. Plates were then frozen at -80°C, thawed, and incubated for one hour with 1x SYBR Green I in a lysis buffer (20 mM Tris-HCL, 0.08% saponin, 5 mM EDTA, and 0.8% Triton X-100). Fluorescence was then read on a Synergy Neo2 multimode reader (BioTek Winsooki, VT). […]

In the case of `C=C1C(C)C2C(Cc3ccccc3)NC(=O)C23C(=O)C=CC(O)C(O)C(C)CC(C)CC=CC3C1O` (stereo not drawn) [Methyldeoxaphomin NPDG-F], the “average EC50 shift, clones from flasks 2 and 3” value ([1]; A136S) is reported as 3.5 fold, the “average EC50 shift, clones from flask 1” value ([1]; A171V/S and I290L clones) is reported as 2.6 fold and the EC50 ([1]; DD2, clone 1-C7, A171S (8%), A171V (92%), I290L) is reported as 11.5 µM. It also gave an EC50 ([1]; DD2, clone 1-D6, A171S (3%), A171V (97%), I290L) of 7.79 µM, an EC50 ([1]; DD2, clone 1-D7, A171S (22%), A171V (78%), I290L) of 9.02 µM and an EC50 ([1]; DD2, clone 1-F3, A171S (4%), A171V (96%), I290L) of 7.04 µM. It also gave an EC50 ([1]; DD2, clone 2-C4, A136S) of 14.1 µM, an EC50 ([1]; DD2, clone 2-F5, A136S) of 10.2 µM and an EC50 ([1]; DD2, clone 3-C3, A136S) of 12.7 µM. It also gave an EC50 ([1]; DD2, clone 3-C5, A136S) of 10 µM, a Fold change ([1]; clone 1-C7 vs Dd2-Pol δ parent) of 3.3 and a Fold change ([1]; clone 1-D6 vs Dd2-Pol δ parent) of 2.3. For the same compound, the Fold change ([1]; clone 1-D7 vs Dd2-Pol δ parent) was 2.6, the Fold change ([1]; clone 1-F3 vs Dd2-Pol δ parent) was 2.1 and the Fold change ([1]; clone 2-C4 vs Dd2-Pol δ parent) was 4.1. It also gave a Fold change ([1]; clone 2-F5 vs Dd2-Pol δ parent) of 3.0, a Fold change ([1]; clone 3-C3 vs Dd2-Pol δ parent) of 3.7 and a Fold change ([1]; clone 3-C5 vs Dd2-Pol δ parent) of 2.9. The “99.9% PCT (parasite clearance time)” value (P. falciparum) was “more than 96 h”, the killing profile (P. falciparum) was “gradual killing profile” and the lag phase (P. falciparum) was 24 h. For the same compound, the “log(PRR)” value (P. falciparum) was 0.64, the EC50 ([2]; Plasmodium falciparum, DD2, 72 h, read-out: Dd2 EC50, means from triplicate experiments ± SEM, 72 h) was 0.55 µM and the EC50 ([2]; Plasmodium falciparum, DD2, read-out: Dd2: Average EC50, average ± SEM of three replicates) was 0.55 ± 0.04 µM. For the same compound, the EC50 ([2]; Plasmodium falciparum, DD2, read-out: Dd2: EC50, individual replicates) was 0.5 µM, the EC50 ([2]; Plasmodium falciparum, DD2, read-out: EC50 in Dd2, abstract) was 0.55 µM and the EC50 ([2]; read-out: Dd2: EC50, individual replicates) was 0.58 µM.
